Patent US8883801B2, “Substituted pyrazolo[1,5-a]pyrimidines as mTOR inhibitors” (Merck Sharp & Dohme Corp., priority 2010, dated 2014)
Read-outs that look alike come from different tables or passages of the source.

Legend:
[1] = test system: mTORC2 activity: phosphorylated AKT Ser473 (pAKT S473) in PC3 cells; assay: mTOR target engagement assay, immunofluorescent cell-based, mTORC2 readout; conditions: Homo sapiens, PC-3, 1.5 h, 90 min treatment
Protocol: The target engagement of mTOR kinase inhibitors was evaluated using an immunofluorescent cell-based assay. In this assay, inhibition of mTORC1 activity was measured by the reduction in the level of phosphorylated 4E-BP1Thr37/46 (p4E-BP1 Thr37/46), and inhibition of mTORC2 activity was measured by the reduction of phosphorylated AKTSer473 (pAKT S473).
PC3 cells (prostate tumor cell-line that contains a mutation in the tumor suppressor PTEN, that promotes the phosphorylation and activation of AKT and 4E-BP1) were used in the immunofluorescence assay. PC3 cells were seeded on 384 well plates (black clear bottom, Matrix #4332) overnight. PC3 cells were then treated with 40 μl of the serially diluted test compounds (in 5% fetal bovine serum, F12 medium containing 0.25% DMSO) for ninety minutes at 37° C. The test compound solution was removed, and the plates were washed gently two times with 25 μl phosphate buffered saline (PBS). The cells were fixed by adding 25 μl of Prefer reagent (from Anatech LTD, Cat#414, a glyoxal fixative for fixing proteins within a cell) for sixty minutes followed by three washes with PBS. 5% Goat serum in PBS/0.3% Triton was used to block non-specific binding (60 minutes).
The primary antibodies targeting pAKT S473 and p4E-BP1 Thr37/46 were diluted into PBS/0.3% Triton and incubated with the cells overnight at 4° C. The antibodies targeting pAKTS473 (Cat#4085, Cell signaling) and p4E-BP1 Thr37/46 (Cat#2855, Cell signaling) were used at a 1:100 dilution. Plates were washed three times with PBS/0.1% Tween 20 before adding the secondary antibody at a 1:200 dilution. (goat anti-rabbit containing a fluorescent label, Alexa Fluor 488, Cat#A11008, Invitrogen) in PBS/0.3% Triton for 60 minutes.
Finally, the plates were washed three times with PBS/0.1% Tween 20 and the fluorescent intensity was read using an Analyst HT from Molecular Devices. The fluorescent intensity values from the serially diluted compound treatment group were analyzed using the Xlfit 4 program ([…]) (Formula 205: Y=Bottom+(Top-Bottom)/(1+(IC50/X)^Hillslope) to generate the IC50 value. Where Top is the maximum signal without Compound (+DMSO only) and Bottom represents maximum inhibition. Y is the fluorescence at some compound concentration. The control used to determine the fluorescent intensities for 100% pAKT S473 or 100% phosphorylated p4E-BP1 Thr37/46 were measured from untreated wells that contained only DMSO, instead of test compound.

human mTOR enzyme = human mTOR enzyme (Homo sapiens, UniProt P42345); assay: HTRF mTOR enzyme (kinase) assay; format: biochemical; conditions: 5 μM ATP, 0.2 μM GST-S6K, read-out: hMTOR IC50
Chain of human mTOR enzyme (P42345 1360-2549 limits assumed): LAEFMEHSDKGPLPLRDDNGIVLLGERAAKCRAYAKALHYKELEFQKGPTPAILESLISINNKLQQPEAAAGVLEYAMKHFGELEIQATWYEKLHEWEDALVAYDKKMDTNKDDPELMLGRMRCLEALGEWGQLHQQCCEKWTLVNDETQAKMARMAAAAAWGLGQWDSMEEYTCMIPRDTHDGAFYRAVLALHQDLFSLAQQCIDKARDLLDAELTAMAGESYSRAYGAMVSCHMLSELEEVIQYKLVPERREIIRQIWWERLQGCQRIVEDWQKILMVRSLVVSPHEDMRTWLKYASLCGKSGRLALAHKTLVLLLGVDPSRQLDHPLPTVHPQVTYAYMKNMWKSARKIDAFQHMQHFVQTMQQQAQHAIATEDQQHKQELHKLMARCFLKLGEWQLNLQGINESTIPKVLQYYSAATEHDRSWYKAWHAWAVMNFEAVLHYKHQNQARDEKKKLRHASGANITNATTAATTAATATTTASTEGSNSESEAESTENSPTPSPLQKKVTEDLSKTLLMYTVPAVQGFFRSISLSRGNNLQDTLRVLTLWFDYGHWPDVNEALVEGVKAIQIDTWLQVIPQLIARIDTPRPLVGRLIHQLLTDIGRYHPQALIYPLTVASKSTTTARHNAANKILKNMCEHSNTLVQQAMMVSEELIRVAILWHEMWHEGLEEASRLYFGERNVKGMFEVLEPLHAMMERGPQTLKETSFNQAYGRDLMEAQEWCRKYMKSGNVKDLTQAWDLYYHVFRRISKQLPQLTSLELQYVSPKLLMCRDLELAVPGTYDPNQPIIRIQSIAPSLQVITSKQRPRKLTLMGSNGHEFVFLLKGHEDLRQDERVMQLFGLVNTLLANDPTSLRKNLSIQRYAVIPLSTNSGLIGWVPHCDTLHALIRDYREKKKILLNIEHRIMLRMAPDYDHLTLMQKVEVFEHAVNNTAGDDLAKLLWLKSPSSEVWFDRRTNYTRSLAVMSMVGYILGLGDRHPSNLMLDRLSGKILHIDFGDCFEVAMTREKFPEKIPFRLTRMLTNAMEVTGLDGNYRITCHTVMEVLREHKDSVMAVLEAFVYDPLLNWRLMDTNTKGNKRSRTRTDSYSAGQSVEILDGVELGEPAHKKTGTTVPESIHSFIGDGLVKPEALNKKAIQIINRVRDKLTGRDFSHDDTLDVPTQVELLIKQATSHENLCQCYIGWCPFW
Protocol: Methods: An HTRF mTOR enzyme assay was developed to assess the compounds' inhibitory activity. The mTOR assay buffer contained 10 mM Hepes (pH 7.4), 50 mM NaCl, […] BSA, 50 mM […], 10 mM MnCl2 and 0.5 mM DTT. […] 20 ng of human mTOR enzyme (<5% pure was preincubated with the compound for 10 minutes followed by the addition of 5 μM ATP and 0.2 μM GST-S6K (Zhang et al., Protein Expression and Purification 46, pp 414-420 (2006)). The reaction was incubated for one hour at 30° C. Anti phospho p70-S6K(Thr389) (˜1.7 ng/well, anti-phospho-p70S6K-cryptate (Pho-p70S6-Kin-K cat#64CUSKAY, from Cisbio)) and anti GST-XL665 (1:1 Ratio with the substrate GST-S6K, anti GST-XL665, cat#61GSTXLB) Cisbio) were added after the reaction was stopped. The plates were read (PHERAstar, BMG) at least 2 hours after adding the anti phospho p70-S6K and the anti GST-XL665.
IC50 DETERMINATIONS: Dose-response curves were plotted from the inhibition data generated, each in duplicate, from 8 point serial dilutions of inhibitory compounds. Concentration of compound was plotted against the HTRF em665/em590 ratio signal. To generate IC50 values, the dose-response curves were fitted to a standard sigmoidal curve and IC50 values were derived by nonlinear regression analysis.

Row | SMILES | IC50 ([1]; rated class) | IC50 (human mTOR enzyme; rated class) | IC50 ([1]; numeric value) | IC50 (human mTOR enzyme; numeric value)
1 | COC[C@]1(C(=O)O)CC[C@H](c2nc3c(-c4cnc5ccc(F)cc5c4)cnn3c(N)c2Br)CC1 [Compound 7, (1R,4R)-4-(7-amino-6-bromo-3-(6-fluoroquinolin-3-yl)pyrazolo[1,5-a]pyrimidin-5-yl)-1-(methoxymethyl)-cyclohexane-carboxylic acid] | 1 to 2 µM | 0.001 to 0.1 µM | – | –
2 | COC[C@]1(C(=O)O)CC[C@@H](c2nc3c(-c4cnc5ccc(F)cc5c4)cnn3c(N)c2Br)CC1 [Compound 8, (1S,4S)-4-(7-amino-6-bromo-3-(6-fluoroquinolin-3-yl)pyrazolo[1,5-a]pyrimidin-5-yl)-1-(methoxymethyl)-cyclohexane-carboxylic acid] | 5 to 15 µM | 0.001 to 0.1 µM | – | –
3 | CS[C@]1(C(=O)O)CC[C@H](c2nc3c(-c4cnn(-c5ccccc5)c4)cnn3c(N)c2Br)CC1 [Compound 9, (1S,4S)-4-(7-amino-6-bromo-3-(1-phenyl-1H-pyrazol-4-yl)pyrazolo[1,5-a]pyrimidin-5-yl)-1-(methylthio)-cyclohexane-carboxylic acid] | 0.1 to 1 µM | 0.001 to 0.1 µM | – | –
4 | CS[C@]1(C(=O)O)CC[C@@H](c2nc3c(-c4cnn(-c5ccccc5)c4)cnn3c(N)c2Br)CC1 [Compound 10, (1R,4R)-4-(7-amino-6-bromo-3-(1-phenyl-1H-pyrazol-4-yl)pyrazolo[1,5-a]pyrimidin-5-yl)-1-(methylthio)-cyclohexane-carboxylic acid] | 2 to 5 µM | 0.001 to 0.1 µM | – | –
5 | COCCOC[C@]1(C(=O)O)CC[C@H](c2nc3c(-c4ccc(-c5ccccc5)nc4)cnn3c(N)c2Br)CC1 [Compound 11, (1R,4R)-4-(7-amino-6-bromo-3-(6-phenylpyridin-3-yl)pyrazolo[1,5-a]pyrimidin-5-yl)-1-((2-methoxyethoxy)methyl)cyclohexane-carboxylic acid] | – | – | 2.03 µM | 0.00461 µM
6 | COCCOC[C@]1(C(=O)O)CC[C@@H](c2nc3c(-c4ccc(-c5ccccc5)nc4)cnn3c(N)c2Br)CC1 [Compound 12, (1S,4S)-4-(7-amino-6-bromo-3-(6-phenylpyridin-3-yl)pyrazolo[1,5-a]pyrimidin-5-yl)-1-((2-methoxyethoxy)methyl)cyclohexane-carboxylic acid] | 2 to 5 µM | 0.001 to 0.1 µM | – | –
7 | COCCOC[C@]1(C(=O)O)CC[C@H](c2nc3c(-c4cnn(-c5ccccc5)c4)cnn3c(N)c2Br)CC1 [Compound 13, (1R,4R)-4-(7-amino-6-bromo-3-(1-phenyl-1H-pyrazol-4-yl)pyrazolo[1,5-a]pyrimidin-5-yl)-1-((2-methoxyethoxy)methyl)cyclohexane-carboxylic acid] | 5 to 15 µM | 0.001 to 0.1 µM | – | –
8 | COCCOC[C@]1(C(=O)O)CC[C@@H](c2nc3c(-c4cnn(-c5ccccc5)c4)cnn3c(N)c2Br)CC1 [Compound 14, (1S,4S)-4-(7-amino-6-bromo-3-(1-phenyl-1H-pyrazol-4-yl)pyrazolo[1,5-a]pyrimidin-5-yl)-1-((2-methoxyethoxy)methyl)cyclohexane-carboxylic acid] | 5 to 15 µM | 0.001 to 0.1 µM | – | –
9 | CC(=O)c1c(N)n2ncc(-c3ccc(-c4ccccc4)nc3)c2nc1[C@H]1CC[C@](F)(C(=O)O)CC1 [Compound 16, (1S,4S)-(6-acetyl-7-amino-3-(6-phenylpyridin-3-yl)pyrazolo[1,5-a]pyrimidin-5-yl)-1-fluorocyclohexane-carboxylic acid] | 1 to 2 µM | 0.001 to 0.1 µM | – | –
10 | CC(=O)c1c(N)n2ncc(-c3ccc(-c4ccccc4)nc3)c2nc1[C@H]1CC[C@@](F)(C(=O)O)CC1 [Compound 17, (1R,4R)-4-(6-acetyl-7-amino-3-(6-phenylpyridin-3-yl)pyrazolo[1,5-a]pyrimidin-5-yl)-1-fluorocyclohexane-carboxylic acid] | 0.1 to 1 µM | 0.001 to 0.1 µM | – | –
11 | COC[C@]1(C(=O)O)CC[C@@H](c2nc3c(-c4ccc(-c5ccccc5)nc4)cnn3c(N)c2C(C)=O)CC1 [Compound 19, (1S,4S)-4-(6-acetyl-7-amino-3-(6-phenylpyridin-3-yl)pyrazolo[1,5-a]pyrimidin-5-yl)-1-(methoxymethyl)-cyclohexane-carboxylic acid] | 0.1 to 1 µM | 0.001 to 0.1 µM | – | –
12 | COC[C@]1(O)CC[C@H](c2nc3c(-c4ccc(-c5ccccc5)nc4)cnn3c(N)c2Br)CC1 [Compound 163, (1R,4R)-4-(7-amino-6-bromo-3-(6-phenylpyridin-3-yl)pyrazolo[1,5-a]pyrimidin-5-yl)-1-(methoxymethyl)cyclohexanol] | – | 0.001 to 0.1 µM | – | –
13 | COCC1(CO)CCC(c2nc3c(-c4cnn(-c5ccccc5)c4)cnn3c(N)c2Br)CC1 (centres unmarked) [Compound 167, (4-(7-amino-6-bromo-3-(1-phenyl-1H-pyrazol-4-yl)pyrazolo[1,5-a]pyrimidin-5-yl)-1-(methoxymethyl)-cyclohexyl)methanol] | – | 0.001 to 0.1 µM | – | –

Next, values leading:

Row | IC50 ([1]; rated class) | IC50 (human mTOR enzyme; rated class) | IC50 ([1]; numeric value) | IC50 (human mTOR enzyme; numeric value) | SMILES
14 | 2 to 5 µM | 0.001 to 0.1 µM | – | – | COc1ccc(-c2ccc(-c3cnn4c(N)c(C(C)=O)c(C5CCC(O)(CO)CC5)nc34)cn2)cn1 (single isomer, unassigned) [Compound 146, 1-(7-amino-5-(4-hydroxy-4-(hydroxymethyl)-cyclohexyl)-3-(6′-methoxy-2,3′-bipyridin-5-yl)pyrazolo[1,5-a]pyrimidin-6-yl)ethanone]
15 | 1 to 2 µM | 0.001 to 0.1 µM | – | – | CC(=O)c1c(C2CCC(O)(CO)CC2)nc2c(-c3cnn(-c4cscn4)c3)cnn2c1N (single isomer, unassigned) [Compound 152, 1-(7-amino-5-(4-hydroxy-4-(hydroxymethyl)-cyclohexyl)-3-(1-(thiazol-4-yl)-1H-pyrazol-4-yl)pyrazolo[1,5-a]pyrimidin-6-yl)ethanone]
16 | 2 to 5 µM | 0.001 to 0.1 µM | – | – | C[C@]1(C(=O)O)CC[C@@H](c2nc3c(-c4ccc(-c5ccccc5)nc4)cnn3c(N)c2Br)CC1 [Compound 2, (1S,4S)-4-(7-amino-6-bromo-3-(6-phenylpyridin-3-yl)pyrazolo[1,5-a]pyrimidin-5-yl)-1-methylcyclohexanecarboxylic acid]
17 | 1 to 2 µM | 0.001 to 0.1 µM | – | – | Nc1c(Br)c([C@H]2CC[C@](F)(C(=O)O)CC2)nc2c(-c3ccc(-c4ccccc4)nc3)cnn12 [Compound 3, (1S,4S)-4-(7-amino-6-bromo-3-(6-phenylpyridin-3-yl)pyrazolo[1,5-a]pyrimidin-5-yl)-1-fluorocyclohexane-carboxylic acid]
18 | 0.1 to 1 µM | 0.001 to 0.1 µM | – | – | Nc1c(Br)c([C@H]2CC[C@@](F)(C(=O)O)CC2)nc2c(-c3ccc(-c4ccccc4)nc3)cnn12 [Compound 4, (1R,4R)-4-(7-amino-6-bromo-3-(6-phenylpyridin-3-yl)pyrazolo[1,5-a]pyrimidin-5-yl)-1-fluorocyclohexane-carboxylic acid]
19 | 0.1 to 1 µM | 0.001 to 0.1 µM | – | – | COCC1(C(=O)O)CCC(c2nc3c(-c4ccc(-c5ccccc5)nc4)cnn3c(N)c2Br)CC1 (centres unmarked) [Compound 5, 4-(7-amino-6-bromo-3-(6-phenylpyridin-3-yl)pyrazolo[1,5-a]pyrimidin-5-yl)-1-(methoxymethyl)-cyclohexane-carboxylic acid]
20 | 1 to 2 µM | 0.001 to 0.1 µM | – | – | COCC1(C(=O)O)CCC(c2nc3c(-c4cnn(-c5ccccc5)c4)cnn3c(N)c2Br)CC1 (centres unmarked) [Compound 6, 4-(7-amino-6-bromo-3-(1-phenyl-1H-pyrazol-4-yl)pyrazolo[1,5-a]pyrimidin-5-yl)-1-(methoxymethyl)-cyclohexane-carboxylic acid]
